Experimental data published in patent US20260262643A1, “HERBICIDAL BENZOXAZINES” (FMC CORPORATION, priority 2022, published 2026).

Columns and labels:
soybean [1] = assay: Test C preemergence; type: in vivo, Glycine max
How it was run: (§1)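 Test material, in non-phytotoxic solvent with surfactant, was sprayed on the soil directly after seeding (preemergence) or on young plants of 2–10 cm with one to two leaves (postemergence). Greenhouse, 10 days; 0–100 visual control scale.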

blackgrass [2] = assay: Test C preemergence; type: in vivo, Alopecurus myosuroides
How it was run: as §1

ragweed [3] = assay: Test C postemergence; type: in vivo, Ambrosia artemisiifolia; settings: 10 days, 0 to 100 scale (0 no effect, 100 complete control)
How it was run: as §1

ryegrass, Italian [4] = assay: Test C postemergence; type: in vivo, Lolium multiflorum; settings: 10 days, 0 to 100 scale (0 no effect, 100 complete control)
How it was run: as §1

foxtail, giant [5] = assay: Test C postemergence; type: in vivo, Setaria faberi; settings: 10 days, 0 to 100 scale (0 no effect, 100 complete control)
Source text: (§2) Seeds of plant species selected from barnyardgrass (Echinochloa crusgalli), blackgrass (Alopecurus myosuroides), corn (Zea mays), foxtail, giant (giant foxtail, Setaria faberi), green foxtail (Setaria viridis), goosegrass (Eleusine indica), kochia (Bassia scoparia), oat, wild (wild oat, Avena fatua), pigweed, palmer (palmer amaranth, palmer pigweed, Amaranthus palmeri), Pigweed, Redroot (redroot pigweed, Amaranthus retroflexus), ragweed (common ragweed, Ambrosia artemisiifolia), ryegrass, Italian ([…] ryegrass, Lolium multiflorum), soybean (Glycine max), and wheat (Triticum aestivum) were planted into a blend of loam soil and sand and treated preemergence with a directed soil spray using test chemicals formulated in a non-phytotoxic solvent mixture which included a surfactant. At the same time, plants selected from these crops and weed species and also galium (catchweed bedstraw, Galium aparine) and horseweed (Erigeron canadensis) were planted in pots containing the same blend of loam soil and sand and treated with postemergence applications of test chemicals formulated in the same manner. Plants ranged in height from 2 to 10 cm and were in the one- to two-leaf stage for the postemergence treatment. Treated plants and untreated controls were maintained in a greenhouse for 10 days, after which time all treated plants were compared to untreated controls and visually evaluated for injury. Plant response ratings, summarized in Table C, are based on a 0 to 100 scale where 0 is no effect and 100 is complete control. A dash (-) response means no test result.

kochia [6] = assay: Test C preemergence; type: in vivo, Bassia scoparia
How it was run: as §1

pigweed, palmer [7] = assay: Test C postemergence; type: in vivo, Amaranthus palmeri; settings: 10 days, 0 to 100 scale (0 no effect, 100 complete control)
How it was run: as §1

horseweed = assay: Test C postemergence; type: in vivo, Erigeron canadensis; settings: 10 days, 0 to 100 scale (0 no effect, 100 complete control)
How it was run: as §1

kochia [8] = assay: Test C postemergence; type: in vivo, Bassia scoparia; settings: 10 days, 0 to 100 scale (0 no effect, 100 complete control)
How it was run: as §1

ducksalad = assay: Test D flooded paddy test; type: in vivo, Heteranthera limosa; settings: 250 g ai/ha, applied to paddy water, visual rating after 13 to 14 days, scale 0 to 100 (0 no effect, 100 complete control)
How it was run: (§3)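 Plants grown to the 2-leaf stage; pots flooded to 3 cm above soil at treatment and held at that depth throughout. Test compounds applied directly to the paddy water. After 13 to 14 days in a greenhouse, response was rated visually versus controls on a 0 (no effect) to 100 (complete control) scale.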

wheat [9] = assay: Test C postemergence; type: in vivo, Triticum aestivum; settings: 10 days, 0 to 100 scale (0 no effect, 100 complete control)
How it was run: as §1

pigweed, palmer [10] = assay: Test C preemergence; type: in vivo, Amaranthus palmeri
How it was run: as §1

rice = assay: Test D flooded paddy test; type: in vivo, Oryza sativa; settings: 250 g ai/ha, applied to paddy water, visual rating after 13 to 14 days, scale 0 to 100 (0 no effect, 100 complete control)
How it was run: as §3

ryegrass, Italian [11] = assay: Test C preemergence; type: in vivo, Lolium multiflorum
How it was run: as §1

oat, wild [12] = assay: Test C postemergence; type: in vivo, Avena fatua; settings: 10 days, 0 to 100 scale (0 no effect, 100 complete control)
How it was run: as §1

soybean [13] = assay: Test C postemergence; type: in vivo, Glycine max; settings: 10 days, 0 to 100 scale (0 no effect, 100 complete control)
How it was run: as §1

oat, wild [14] = assay: Test C preemergence; type: in vivo, Avena fatua
How it was run: as §1

galium = assay: Test C postemergence; type: in vivo, Galium aparine; settings: 10 days, 0 to 100 scale (0 no effect, 100 complete control)
How it was run: as §1

barnyardgrass [15] = assay: Test C preemergence; type: in vivo, Echinochloa crusgalli
How it was run: as §1

barnyardgrass [16] = assay: Test D flooded paddy test; type: in vivo, Echinochloa crus-galli; settings: 250 g ai/ha, applied to paddy water, visual rating after 13 to 14 days, scale 0 to 100 (0 no effect, 100 complete control)
How it was run: as §3

sedge, umbrella = assay: Test D flooded paddy test; type: in vivo, Cyperus difformis; settings: 250 g ai/ha, applied to paddy water, visual rating after 13 to 14 days, scale 0 to 100 (0 no effect, 100 complete control)
How it was run: as §3

wheat [17] = assay: Test C preemergence; type: in vivo, Triticum aestivum
How it was run: as §1

barnyardgrass [18] = assay: Test C postemergence; type: in vivo, Echinochloa crusgalli; settings: 10 days, 0 to 100 scale (0 no effect, 100 complete control)
How it was run: as §1

corn [19] = assay: Test C preemergence; type: in vivo, Zea mays
How it was run: as §1

foxtail, giant [20] = assay: Test C preemergence; type: in vivo, Setaria faberi
Source text: as §2

corn [21] = assay: Test C postemergence; type: in vivo, Zea mays; settings: 10 days, 0 to 100 scale (0 no effect, 100 complete control)
How it was run: as §1

ragweed [22] = assay: Test C preemergence; type: in vivo, Ambrosia artemisiifolia
How it was run: as §1

blackgrass [23] = assay: Test C postemergence; type: in vivo, Alopecurus myosuroides; settings: 10 days, 0 to 100 scale (0 no effect, 100 complete control)
How it was run: as §1

[24] = 500 g ai/ha, preemergence, 0 to 100 scale (0 no effect, 100 complete control)
[25] = Preemergence, 125 g ai/ha, 0 to 100 scale, 0 no effect, 100 complete control

Cc1cccc2c1OC(C(F)(F)F)CN2C(=O)c1ccnc(-n2cnc(C(C)(C)C)n2)c1 (stereo not shown) [Compound 319]
Soybean plant response rating (soybean [1]; [24]): 100 | Plant response rating, Soybean (soybean [1]; [25]): 20 | Blackgrass plant response rating (blackgrass [2]; [24]): 70 | Plant response rating, Blackgrass (blackgrass [2]; [25]): 50 | Plant response rating, Ragweed (ragweed [3]; 500 g ai/ha, postemergence): 70 | Plant response rating, Ragweed (ragweed [3]; Postemergence, 125 g ai/ha): 0 | Plant response rating, Ryegrass, Italian (ryegrass, Italian [4]; 500 g ai/ha, postemergence): 50 | Plant response rating, Ryegrass, Italian (ryegrass, Italian [4]; Postemergence, 125 g ai/ha): 30 | Plant response rating, Foxtail, Giant (foxtail, giant [5]; 500 g ai/ha, postemergence): 80 | Plant response rating, Foxtail, Giant (foxtail, giant [5]; Postemergence, 125 g ai/ha): 30 | Kochia plant response rating (kochia [6]; [24]): 0 | Plant response rating, Kochia (kochia [6]; [25]): 0 | Plant response rating, Pigweed, Palmer (pigweed, palmer [7]; 500 g ai/ha, postemergence): 80 | Plant response rating, Pigweed, Palmer (pigweed, palmer [7]; Postemergence, 125 g ai/ha): 30 | Plant response rating, Horseweed (horseweed; 500 g ai/ha, postemergence): 30 | Plant response rating, Horseweed (horseweed; Postemergence, 125 g ai/ha): 0 | Plant response rating, Kochia (kochia [8]; 500 g ai/ha, postemergence): 90 | Plant response rating, Kochia (kochia [8]; Postemergence, 125 g ai/ha): 40 | Plant response rating, Ducksalad (Flood) (ducksalad): 0 | Plant response rating, Wheat (wheat [9]; 500 g ai/ha, postemergence): 10 | Plant response rating, Wheat (wheat [9]; Postemergence, 125 g ai/ha): 10 | Pigweed, Palmer plant response rating (pigweed, palmer [10]; [24]): 90 | Plant response rating, Pigweed, Palmer (pigweed, palmer [10]; [25]): 80 | Plant response rating, Rice (Flood) (rice): 0 | Ryegrass, Italian plant response rating (ryegrass, Italian [11]; [24]): 100 | Plant response rating, Ryegrass, Italian (ryegrass, Italian [11]; [25]): 100 | Plant response rating, Oat, Wild (oat, wild [12]; 500 g ai/ha, postemergence): 30 | Plant response rating, Oat, Wild (oat, wild [12]; Postemergence, 125 g ai/ha): 0 | Plant response rating, Soybean (soybean [13]; 500 g ai/ha, postemergence): 100 | Plant response rating, Soybean (soybean [13]; Postemergence, 125 g ai/ha): 100 | Oat, Wild plant response rating (oat, wild [14]; [24]): 40 | Plant response rating, Oat, Wild (oat, wild [14]; [25]): 20 | Plant response rating, Galium (galium; 500 g ai/ha, postemergence): 70 | Plant response rating, Galium (galium; Postemergence, 125 g ai/ha): 60 | Barnyardgrass plant response rating (barnyardgrass [15]; [24]): 90 | Plant response rating, Barnyardgrass (barnyardgrass [15]; [25]): 40 | Plant response rating, Barnyardgrass (Flood) (barnyardgrass [16]): 0 | Plant response rating, Sedge, Umbrella (Flood) (sedge, umbrella): 0 | Wheat plant response rating (wheat [17]; [24]): 30 | Plant response rating, Wheat (wheat [17]; [25]): 0 | Plant response rating, Barnyardgrass (barnyardgrass [18]; 500 g ai/ha, postemergence): 60 | Plant response rating, Barnyardgrass (barnyardgrass [18]; Postemergence, 125 g ai/ha): 10 | Corn plant response rating (corn [19]; [24]): 20 | Plant response rating, Corn (corn [19]; [25]): 0 | Foxtail, Giant plant response rating (foxtail, giant [20]; [24]): 100 | Plant response rating, Foxtail, Giant (foxtail, giant [20]; [25]): 100 | Plant response rating, Corn (corn [21]; 500 g ai/ha, postemergence): 50 | Plant response rating, Corn (corn [21]; Postemergence, 125 g ai/ha): 20 | Ragweed plant response rating (ragweed [22]; [24]): 0 | Plant response rating, Ragweed (ragweed [22]; [25]): 0 | Plant response rating, Blackgrass (blackgrass [23]; 500 g ai/ha, postemergence): 80 | Plant response rating, Blackgrass (blackgrass [23]; Postemergence, 125 g ai/ha): 10
